Experimental data published in publication PMC8242589, “Cardiac Safety of Kinase Inhibitors – Improving Understanding and Prediction of Liabilities in Drug Discovery Using Human Stem Cell-Derived Models” (Frontiers in Cardiovascular Medicine, 2021).

What was measured:
[1] = tested on: hSC-CMs (Cor.4U Cardiomyocytes); test: Apoptosis assay (CellEvent Caspase-3/7 Green, IncuCyte ZOOM kinetics over 24 h); assay type: cell-based, human; settings: for activity at 0.2 µM / activity at 2 µM / activity at 20 µM / activity at 200 µM: Homo sapiens, Cardiomyocyte, normalized to time-matched vehicle control
How it was run: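 Cor.4U cardiomyocytes were cultured 4 days at 5% CO2 and 37 °C, given a 2 h baseline, then treated with compound for 24 h. Caspase-3/7 green nuclear signal was imaged every 2 h, and total green object area per well (μm^2/well) was normalized to the time-matched vehicle control. At least three replicates were run per concentration.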

[2] = tested on: hSC-CMs (Cor.4U Cardiomyocytes); test: CardioExcyte 96 impedance and EFP recording (beating rate, base impedance); assay type: cell-based, human; settings: for activity at 0.2 µM / activity at 2 µM / activity at 20 µM / activity at 200 µM: Homo sapiens, Cardiomyocyte, vs baseline before drug (taken as 100%)
How it was run: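 hSC-CM monolayers (Cor.4U), cultured 4 days at 37 °C, 5% CO2, recorded spontaneously beating; impedance sampled at 1 kHz, EFP at 10 kHz. Beating rate taken as reciprocal of inter-spike interval in EFP. Each test concentration expressed as fractional change versus pre-drug baseline (100%).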

[3] = tested on: hSC-CMs (Cor.4U Cardiomyocytes); test: ATP assay (CellTiter-Glo Luminescent Cell Viability Assay); assay type: cell-based, human; settings: for viability at 0.2 µM / viability at 2 µM / viability at 20 µM / viability at 200 µM: Homo sapiens, Cardiomyocyte, normalized to time-matched DMSO control
How it was run: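 Human stem-cell-derived Cor.4U cardiomyocytes (25,000–30,000/well), cultured 4 days at 37 °C, switched to serum-free BMCC medium 12 h before dosing. Cellular ATP quantified by CellTiter-Glo luminescence and normalized to time-matched DMSO controls; at least three replicates per concentration.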

PI3K p110β = settings: ref [23]–[25] (NVP-BEZ235), [27] (LY 294002), [28] (GDC-0941), [32] (TGX-221), [33] (CAL-101), [35] (CZC24832); read-out: Target IC50 p110β; cited from earlier work
[4] = clinical exposure in patients; ref [26] (NVP-BEZ235), [29], [30] (GDC-0941), [34] (CAL-101); cited from earlier work

Which results are given for CC[C@H](Nc1ncnc2[nH]cnc12)c1nc2cccc(F)c2c(=O)n1-c1ccccc1 [CAL-101, Idelalisib]?
activity at 0.2 µM ([1]; 2h): 137%; activity at 0.2 µM ([1]; 24h): 90%; activity at 2 µM ([1]; 2h): 118%; activity at 2 µM ([1]; 24h): 83%; activity at 20 µM ([1]; 2h): 99%; activity at 20 µM ([1]; 24h): 169%; activity at 200 µM ([1]; 2h): 83%; activity at 200 µM ([1]; 24h): 544%; Apoptosis (caspase-3/7 activation), result in words ([1]; hSC-CMs, monitored over 24 h): induced apoptosis in hSC-CMs with a fast onset; Time to reach the maximum number of apoptotic cells ([1]; hSC-CMs, monitored over 24 h): ≤ 12 h; activity at 0.2 µM ([2]; 2h, read-out: BR): 102%; activity at 0.2 µM ([2]; 2h, read-out: Base Imp): 93%; activity at 0.2 µM ([2]; 24h, read-out: BR): 99%; activity at 0.2 µM ([2]; 24h, read-out: Base Imp): 94%; activity at 2 µM ([2]; 2h, read-out: BR): 96%; activity at 2 µM ([2]; 2h, read-out: Base Imp): 93%; activity at 2 µM ([2]; 24h, read-out: BR): 94%; activity at 2 µM ([2]; 24h, read-out: Base Imp): 99%; activity at 20 µM ([2]; 2h, read-out: BR): 89%; activity at 20 µM ([2]; 2h, read-out: Base Imp): 96%; activity at 20 µM ([2]; 24h, read-out: BR): 80%; activity at 20 µM ([2]; 24h, read-out: Base Imp): 89%; activity at 200 µM ([2]; 2h, read-out: BR): 5%; activity at 200 µM ([2]; 2h, read-out: Base Imp): 70%; activity at 200 µM ([2]; 24h, read-out: BR): 39%; activity at 200 µM ([2]; 24h, read-out: Base Imp): 52%; Effect on cardiomyocyte function in 3D surface plots (beating rate, base impedance, ATP), in words ([2]; hSC-CMs, 2 and 24 h): pronounced effects; Reduction of base impedance ([2]; hSC-CMs, 2 and 24 h): more than 20%; Reduction of beating rate ([2]; hSC-CMs, 2 and 24 h): more than 20%; viability at 0.2 µM ([3]; 2h): 87%; viability at 0.2 µM ([3]; 24h): 98%; viability at 2 µM ([3]; 2h): 87%; viability at 2 µM ([3]; 24h): 92%; viability at 20 µM ([3]; 2h): 92%; viability at 20 µM ([3]; 24h): 89%; viability at 200 µM ([3]; 2h): 98%; viability at 200 µM ([3]; 24h): 79%; Decrease of ATP level ([3]; hSC-CMs, after 24 h of incubation): 20–25%; IC50 (PI3K p110β): 56 nM; Cmax free [4]: 700 nM
